Tests used:
Format in all cases: cell-based
HeLa cells [1] = experiment: Cell cycle analysis (PI staining, flow cytometry); details: for Cells in G2/M phase / Cells in S phase / Cells in G0/G1 phase: 72 h; for Cells in G2/M phase: WT 20.4%; for Cells in S phase: WT 23.2%; for Cells in G0/G1 phase: WT 56.6%
Experimental: Cell cycle analysis was performed using BD Cycletest ™ Plus DNA Reagent kit (BD Biosciences, NJ, USA). […] The cells were raised with trypsin and centrifuged at 1500 rpm for 5 min. When a suspension was created by 1X binding buffer, 250 µL solution A was added and incubated in a light-free environment for 10 min, 200 µL solution B was added and incubated in light-free environment for 10 min, and 200 µL solution C was added and incubated at +4 °C in a protected-light environment for 10 min. All these analyses were performed by flow cytometry (BD Via, NJ, USA).

HeLa cells [2] = experiment: WST-1 cytotoxicity assay, HeLa; details: Homo sapiens
Experimental: We used cancer and normal cell lines purchased from ATCC (American Type Culture Collection) and ECACC (European Collection of Authenticated Cell Cultures) and stored in liquid nitrogen.
The cells were planted in 96 well plates (10^4 cells per well). […] WST-1 reactive of 10 µL was added in all wells. Following 4 h incubation, the measurements were carried out in a plate reader (Spectramax M5, BioTek, VT, USA) at wavelengths of 450 and 630 nm.

HEK-293 = experiment: WST-1 cytotoxicity assay, HEK-293; details: Homo sapiens
Experimental: (§1) We used cancer and normal cell lines purchased from ATCC (American Type Culture Collection) and ECACC (European Collection of Authenticated Cell Cultures) and stored in liquid nitrogen. HT-29 (ATCC: HTB-38, colon adenoma cancer), HeLa (ATCC: CCL-2, cervix adenoma cancer cell), MDA-MB-231 (ATCC: HTB-26, breast adenoma cancer cell), and HEK-293 (ATCC: CRL-1573, embryonic kidney epithelial cell) cell lines were incubated in DMEM-F12 (Sigma-Aldrich, Germany), including 10% Fetal Bovine Serum (FBS), 100 μg/mL streptomycin/100 IU/mL penicillin, at 37 °C in an incubator containing 5% CO2, 95% air in a humid atmosphere. PNT-1A (ECACC: 95012614, normal prostate cells) cell line was incubated in RPMI-1640 medium, including %10 FBS, 100 μg/mL streptomycin/100 IU/mL penicillin, at 37 °C in an incubator containing 5% CO2, 95% air in a humid atmosphere.
(§2) The cytotoxic effects of compound E were evaluated with WST kit (Roche, Basel, Switzerland) in accordance with manufacturer protocols. The cells were planted in 96 well plates (10^4 cells per well). After 24 h of incubation, compound E at doses of 0, 2.5, 5, 10, 25, 50, 100, and 200 μM was administrated on the cell lines for 24, 48, and 72 h, and 5-FU on the control cell line with the same doses. WST-1 reactive of 10 µL was added in all wells. Following 4 h incubation, the measurements were carried out in a plate reader (Spectramax M5, BioTek, VT, USA) at wavelengths of 450 and 630 nm. Consequently, graphs were created, and the IC50 values of compound E and 5-fluorouracil were calculated. Selectivity index (SI) can be defined as the ratio of the toxic concentration of a sample against its effective compound concentration.

HeLa cells [3] = experiment: Western blot of apoptotic proteins and CAIX; details: 24 h
Experimental: The cells were seeded on 6 cm^2 cell culture dishes and treated with the compound E at doses of 10–25–50 μM, for 24 h. The cells were then washed by cold PBS, which was followed by lysis with RIPA lysis tampon (10 mM Tris-HC1 pH:8.1 mM EDTA, 1 mM EGTA, 140 mM NaCl, 1% TritonX-100, 0.1 SDS, 0.1% Sodium deoxycholate), 1X phosphates, and protease inhibitor (Santa Cruz, Heidelberg, Germany). Acquired supernatant was centrifuged at 12,000× g for 10 min and transferred to new tubes. Protein concentration was detected using the protein assay kit BCA (Thermo Fisher Scientific, MA, USA). Following protein (50 µg) standing in 10% SDS-PAGE gel at 50 V for 30 min and 80 V for 3 h, the proteins were blotted to PVDF membrane at 70 V for 5 min (Bio-Rad Turbo Transfer System). After blocking in 1X TBST (12.1 gr Tris, pH 7.5, 70 gr NaCl, %0.1 Tween-20) containing 5% dry milk or 5% BSA, the primer monoclonal antibodies shown in Table 3 were administrated to the membrane overnight, which was followed by washing with 1 X TBS-T and incubation period with secondary antibodies HRP rabbit or mouse (1/10.000) for 60 min. The membrane was washed with 1 X TBS-T again. For band imaging, ECL substrate (EMD Millipore Corp., MA, USA) was used in the imaging system (LI-COR Odyssey Fc, NE, USA).

PNT1-A = experiment: WST-1 cytotoxicity assay, PNT1-A; details: Homo sapiens, PNT1A
Experimental: as §1, §2

HeLa cells [4] = experiment: γ-H2AX immunofluorescence staining (DNA damage); details: 10–25–50 µM, 24 h
Experimental: HeLa cells (1 × 10^4/^mL) were seeded in 12-well cell culture plates, and after 24 h incubation, they were treated with the compound E at doses of 10–25–50 µM and incubated for 24 h. The cells were washed with PBS and fixed with 100% methanol at −20 °C overnight, which was followed by PBS washing three times for 10 min. The cells were treated with % 0.2 Triton X-100 on a shaker at room temperature for 5 min. It was washed with PBS, and 1% BSA-containing PBS was added and incubated with primary mouse monoclonal anti-γ-H2AX antibody (Cell Signalling Technology, MA, USA) at 37 °C for 1 h. The cells were washed with PBS three times for 5 min. Secondary goat anti-mouse Alexa-488-conjugated IgG (Invitrogen, CA, USA) was administrated and incubated at 37 °C for 20 min, which was followed by PBS washing three times for 4–5 min. One millilitre of 70% EtOH was added, and at +4 °C it was incubated for 5 min. One millilitre of 100% EtOH was added and, on a shaker, incubated at room temperature for 1–2 min. The nucleus was stained with DAPI. The images were recorded by Olympus Inverted fluorescence microscope (Olympus CKX 51, DP73, USA).

For `NS(=O)(=O)c1ccc(CCNCc2cc(Br)ccc2O)cc1` [Compound E, 4-(2-((5-bromo-2-hydroxybenzyl)amino)ethyl) benzenesulphonamide], which Cell cycle arrest (HeLa cells [1]) is on record?
The Cell cycle arrest was “arrested cell cycle of HeLa cells at the G0/G1 phase”.

And the “Cells in G2/M phase” value (HeLa cells [1]; 10 µM)?
Its value is 22.3%.

And the “Cells in S phase” value (HeLa cells [1]; 10 µM)?
The value was 19.3%.

And the “Cells in G0/G1 phase” value (HeLa cells [1]; 10 µM)?
Its value is 56.8%.

What about the “Cells in G2/M phase” value (HeLa cells [1]; 25 µM) of the same molecule?
Its value is 17.9%.

What about the “Cells in S phase” value (HeLa cells [1]; 25 µM) of the same molecule?
Its value is 14.6%.

What about the “Cells in G0/G1 phase” value (HeLa cells [1]; 25 µM) of the same molecule?
The value was 66.5%.

What about the “Cells in G2/M phase” value (HeLa cells [1]; 50 µM) of the same molecule?
The value was 19.3%.

What about the “Cells in S phase” value (HeLa cells [1]; 50 µM) of the same molecule?
Its value is 10.8%.

What about the “Cells in G0/G1 phase” value (HeLa cells [1]; 50 µM) of the same molecule?
Its value is 68.8%.

And the IC50 (HeLa cells [2]; 24 h)?
The IC50 was 46.4 ± 4.3 µM.

What about the IC50 (HeLa cells [2]; 48 h) of the same molecule?
Its IC50 is 86.8 ± 2.3 µM.

And the IC50 (HeLa cells [2]; 72 h)?
The IC50 was 20.1 ± 4.2 µM.

What about the IC50 (HEK-293; HEK293, HEK-293, 24 h) of the same molecule?
The IC50 was 152 ± 3.44 µM.

What about the IC50 (HEK-293; HEK293, HEK-293, 48 h) of the same molecule?
Its IC50 is 296 ± 4.67 µM.

What about the IC50 (HEK-293; HEK293, HEK-293, 72 h) of the same molecule?
Its IC50 is 76.1 ± 2.1 µM.

What about the CAIX protein level (HeLa cells [3]; 25 µM) of the same molecule?
Its CAIX protein level is “effective for inhibiton of CAIX protein”.

What about the “Cleaved PARP protein level” value (HeLa cells [3]; 10 and 25 µM, vs WT) of the same molecule?
Its value is “increased PARP protein level”.

And the “Cleaved caspase 3, 8, and 9 protein levels” value (HeLa cells [3]; 10–25–50 μM, vs WT)?
The value was “increased”.

And the “Pro-caspase 3 protein level” value (HeLa cells [3]; 10–25–50 μM, vs WT)?
The value was “decreased”.

What about the IC50 (PNT1-A; 24 h) of the same molecule?
Its IC50 is 214 ± 9.3 µM.

And the IC50 (PNT1-A; 48 h)?
Its IC50 is 167 ± 11.4 µM.

What about the IC50 (PNT1-A; 72 h) of the same molecule?
Its IC50 is 398 ± 10.4 µM.

What about the “DNA damage (γ-H2AX level)” value (HeLa cells [4]) of the same molecule?
The value was “induced DNA damage in a dose-dependent manner”.
